Reference: patent US20200030455A1, “MULTISTEP TUMOR TARGETING BY TAGGED ANTIBODY DERIVATIVES AND TAGGED DRUGS” (ISTITUTO BIOCHIMICO ITALIANO GIOVANNI LORENZINI S.P.A, priority 2017, published 2020)

Experiments:
[1] = test system: ERBB2 pathway (c-Fos promoter reporter) in BRC 230 breast carcinoma cells; assay: c-Fos promoter reporter (luminescence, RLU) assay of ERBB2 signaling; type: cell-based
Text: Mertansine was StrepTagged using a linker-spacer (depicted in A). The Strep-tag peptide WSHPQFEK (SEQ ID NO 2) was linked to the mertansine thiol group using the protocol disclosed in Bioconjugate Techniques, 3rd Edition Bioconjugate Techniques, 3rd Edition (2013) by Greg T. Hermanson. BRC 230 breast carcinoma cells, expressing moderate levels of ERBB2 were stably transfected with a promoter-reporter gene construct in which luciferase is placed under the control of the c-Fos promoter. […] Therefore, c-Fos activation is proportional to ERBB2 signaling, and luminescence is expected to decrease in response to the Toolbox treatment. BRC transfectants were seeded in 96-well plates (quadruplicates), and cultured for 24 h either in the presence or in the absence of the ERB-specific growth factor Neuregulin 1 (NRG-1) at a concentration of 5 nM, as indicated. During the last 30 min of this incubation ScFv (10 μg/ml) was added, where indicated. Meanwhile, equal molar concentrations of StrepTagged Mertansine (or RPMI 1640 medium, as a control) were pre-incubated with StrepTactMult in complete culture medium (RPMI 1640 containing 10% bovine serum) to form drug: StrepTactin complexes. […] All the cells were cultured for additional 72 h, and Relative Luminescence Units (RLU) were assessed in a luminometer.

[2] = test system: SK-BR-3 breast carcinoma cells; assay: 3H-Thymidine incorporation (cell proliferation) assay; type: cell-based, human; conditions: drug alone, without Toolbox cocktail; 5 and 50 μM; 72 h
Experimental: NAX 098 was modified by covalent addition of the polypeptide StrepTag ([…]), as also shown in (A). SK-BR-3 breast carcinoma cells were seeded in 96-well plates (quadruplicates), and cultured for 30 min in the presence of ScFv (10 μg/ml). Meanwhile, equal molar concentrations of NAX 098 and NAX […] (or RPMI 1640 medium, as a control) were pre-incubated with StrepTactMult in complete culture medium (RPMI 1640 containing 10% bovine serum) to form drug: StrepTactin complexes. The drug: StrepTactin complexes were added to separate cultures to yield a final StrpTactMult concentration of 0.75 μg/well (approximately 3.2 μg/ml), and two final drug concentrations of 5 and 50 μM, as indicated in (B). As a control, equal amounts of NAX 098 and NAX […] drugs were added to separate wells in the absence of the Toolbox cocktail. All the cells were cultured for 72 h, and ^3H-Thymidine incorporation was assessed over a 4 h radioactive pulse. Results were expressed as percent of radioactive Thymidine incorporation as compared to untreated (RPMI 1640 vehicle alone) control cells.

For “StrepTagged Mertansine: Strep-tag peptide WSHPQFEK linked to the mertansine thiol group using a linker-spacer”, the “activity of the ERBB2 pathway (Relative Luminescence Units)” value ([1]; BRC 230 transfectants, with or without NRG-1 5 nM, ScFv 10 μg/ml, drug 5 nM, 72 h) was “inhibited the ERBB2 pathway” and the “activity of the StrepTagged drug before system-mediated dispatch” value ([1]; figure legend of Drawing 4) was “inactivates the drug”.

`COc1ccc2c(CCc3ccc(Cl)cc3)c3[n+](cc2c1OCCCN1C(=O)C=CC1=O)CCc1cc2c(cc1-3)OCO2` [NAX 098, 9-(3-propylmaleimide)-13-[2-(4-chlorophenyl)ethyl]berberine] was tested, and the “inhibition of cell proliferation (3H-Thymidine incorporation vs untreated control)” value [2] was “strongly inhibited cell proliferation”.
